From patent US20230159889A1, “USE OF N-BUTYLIDENEPHTHALIDE IN DOPAMINERGIC PROGENITOR CELL TRANSPLANTATION” (GWO XI STEM CELL APPLIED TECHNOLOGY CO., LTD., priority 2018, published 2023) come the findings set out here.

Assay [1] has as its system dopaminergic progenitor cells. As to the kind of experiment: Influence of BP on differentiation of dopaminergic progenitor cells into dopaminergic neurons (cell morphology, inverted microscope). Type of assay: cell-based. As to conditions: FIG. 3. The method, then: (§1) The dopaminergic progenitor cells provided by [Preparation Example B-2] were cultured in the conditional medium provided by [Preparation Example A-2] at 37° C., 5% CO2 for 24 hours. Then, the cells were divided into six groups (see FIGS. 3 and 4), three groups (see FIGS. 5 and 6) and independently subjected to the following treatments: • (1) Control group: cells were continuously cultured in the conditional medium provided by [Preparation Example A-2] […]
To understand the influence of BP on the differentiation of dopaminergic progenitor cells into dopaminergic neurons, the differentiation process of the cells in control group provided by [Preparation Example C] was continuously taken from a JuLI™Br cell imaging analyzer (purchased from NanoEnTek company) (results are shown in FIG. 2), and the cell morphology in each group provided by [Preparation Example C] was taken from and recorded by an inverted microscope (purchased from Nikon company) when the cells were continuously cultured for six days (results are shown in FIG. 3).

Assay [2] concerns dopaminergic neurons. As to the kind of experiment: Influence of BP on migration of dopaminergic neurons out from neurospheres (Sox-1/TH/DAPI fluorescent staining). Type of assay: cell-based. Conditions: FIG. 4. The protocol: as §1
To understand the influence of BP on dopaminergic neurons, when the cells in each group provided by [Preparation Example C] were continuously cultured for ten days, the cells were fixed and then subjected to fluorescent staining with the antibodies including Sox-1 (purchased from Santa Cruz company, product number: SC-17318), TH (tyrosine hydroxylase; purchased from Millipore company, product number: MAB152) and DAPI (diamidino-2-phenylindole; purchased from ThermoFisher Scientific company, product number: D1306), respectively (Sox-1 expresses in dopaminergic progenitor cells, TH expresses in dopaminergic neurons, and DAPI is a nuclear-specific dye). Then, the dopaminergic progenitor cells (green fluorescence), dopaminergic neurons (red fluorescence) and nuclei (blue fluorescence) were observed by an upright fluorescent microscope (purchased from Nikon Company).

Turning to `CCCC=C1OC(=O)c2ccccc21` [BP, n-butylidenephthalide], the “influence on the normal neural differentiation of dopaminergic progenitor cells” value in assay [1] (BP 5-100 µM, six days) is reported as “does not influence”. Further, the “formation of nerve fibers” value in assay [1] (BP at 5, 10, 20, 50 and 100 µM in conditional medium (Purmorphamine + FGF-8b), cultured six days) is listed as “can be observed”. In addition, the “phenomenon of dopaminergic neurons migrating out from the neurospheres, comparison among BP concentrations” value in assay [2] (BP 50 µM ("BP (50)" group), ten days) is listed as “most significant”. Further, in assay [2] (BP at 5, 10, 20, 50 and 100 µM in conditional medium, cultured ten days), the “phenomenon of dopaminergic neurons migrating out from the neurospheres, compared to control group” value is on record as “can be observed”.
